Test results: ChEMBL document CHEMBL4316596, “Antimicrobial Peptides with High Proteolytic Resistance for Combating Gram-Negative Bacteria” (J Med Chem, 2019)

Test: Toxicity in ICR mouse assessed as effect on AST levels in serum at 40 mg/kg, ip administered every 12 hrs for 3 days measured at 72 hrs post dose
Assay type: organism-based
Settings: in vivo

H-IRPIIRPIIRPIIRPIIRPIIRPIIRPI-NH2
Activity: Non-Toxic
